{
  "source": "patent US9839618B2",
  "about": "“Compositions and methods relating to proliferative diseases” (The Penn State Research Foundation, priority 2010, dated 2017)",
  "key": {"[1]": {"test_system": "non-melanoma cancer cell lines", "experiment": "MTS assay, leelamine on non-melanoma cancer cell lines", "type": "cell-based", "details": "breast, lung, prostate, connective tissue, pancreas, colon lines", "experimental": "The efficacy of leelamine to kill other cancer types is measured and the IC50 for cell lines derived from carcinomas of breast, lung, prostate, connective tissue, pancreas and colon determined. The MTS assay as described in Sharma, A. et al., Clin Cancer Res, 2009, 15:1674-85; and Madhunapantula, S. V. et al., Mol Cancer Ther, 2008, 7:1297-308 is used to establish the IC50 at 24, 48 and 72 hours of leelamine treatment for normal human epidermal melanocytes (FOM103), normal skin fibroblast cells (FF2441), normal skin keratinocytes (HFK) and compared to melanocytic lesion cells from the radial-, vertical- and metastatic melanoma stages. 5×10^3 cells per well in 100 μL of media are plated and grown in a 96-well plate for 48 to 72 hours and treated with either DMSO vehicle control or 0.62 to 40 μmol/L of leelamine for 24, 48 or 72 hours. IC50 values for each compound in μmol/L for respective cell lines are measured from three independent experiments using GraphPad Prism version 4.01 (GraphPad Software, La Jolla, Calif.). Leelamine is found to be not toxic to normal cells and effective to kill melanoma cells as well as non-melanoma cancer cells as shown in Table 1 in FIG. 20. Leelamine is 3- to 4-fold more specific at killing metastatic melanoma than normal cells, supporting cancer therapeutic utility at concentrations<2 μmol/L."}, "[2]": {"test_system": "UACC 903 and 1205 Lu melanoma cells", "experiment": "Cell cycle analysis (propidium iodide, FACScan)", "type": "cell-based, human", "details": "2 or 3 μmol/L, 24 h", "experimental": "Analysis of the effects of leelamine on cell cycle is performed by growing UACC 903 and 1205 Lu melanoma cells in 100-mm culture dishes followed by treatment with 2 or 3 μmol/L of leelamine for 24 h. Total floating and adherent cells are collected following trypsinization and stained using 1 mL propidium iodide solution containing 100 μg/mL propidium iodide; (Sigma, St Louis, Mo.), 20 μg/mL Ribonuclease A (Roche diagnostics, Indianapolis, Ind.) and 3 μg/mL Triton X-100 dissolved in 0.1% (W/V) sodium citrate for 30 m at 4° C. Stained cells are analyzed using the FACScan analyzer (Becton Dickinson, Franklin lakes, NJ) and data processed utilizing ModFit LT software (Verity Software House, Topsham, Me.) as described in Sharma, A. et al., Clin Cancer Res, 2009, 15:1674-85; and Madhunapantula, S. V. et al., Mol Cancer Ther, 2008, 7:1297-308."}, "[3]": {"experiment": "Toxicity assessment of leelamine", "type": "in vivo, Swiss Webster mice", "experimental": "To assess toxicity, Swiss Webster (n=5) mice are intraperitoneally injected with 5 or 10 mg/kg body weight leelamine or with vehicle control (DMSO) every day for 4 weeks. Animals are weighed daily to ascertain the toxicity leading to changes in body weight. Blood is collected by cardiac puncture at the end of treatment and analyzed for the levels of ALP (alkaline phosphatase), ALT (alanine aminotransferase), AST (aspartate aminotransferase), CK (creatine kinase), CREA (creatinine) and GLU (glucose), parameters indicative of organ related toxicity, following systemic administration of 10-mg/Kg-body weight of leelamine, shown in FIG. 11. […] Vital organs including liver, spleen, kidney, intestine, lung and heart from control and experimental animals are collected at the end of the test period, formalin fixed, paraffin-embedded, hematoxylin/eosin stained and analyzed microscopically for changes in cellular morphology or tissue architecture as described in Sharma, A. et al., Clin Cancer Res, 2009, 15:1674-85; and Madhunapantula, S. V. et al., Mol Cancer Ther, 2008, 7:1297-308."}, "[4]": {"test_system": "cell lines established from melanocytic lesions or melanomas", "experiment": "MTS assay, leelamine on melanocytic lesion and melanoma cell lines", "type": "cell-based", "details": "72 hour exposure; read-out: concentration to kill 50% of cells", "experimental": "(§1) The efficacy of leelamine to kill other cancer types is measured and the IC50 for cell lines derived from carcinomas of breast, lung, prostate, connective tissue, pancreas and colon determined. The MTS assay as described in Sharma, A. et al., Clin Cancer Res, 2009, 15:1674-85; and Madhunapantula, S. V. et al., Mol Cancer Ther, 2008, 7:1297-308 is used to establish the IC50 at 24, 48 and 72 hours of leelamine treatment for normal human epidermal melanocytes (FOM103), normal skin fibroblast cells (FF2441), normal skin keratinocytes (HFK) and compared to melanocytic lesion cells from the radial-, vertical- and metastatic melanoma stages. […] IC50 values for each compound in μmol/L for respective cell lines are measured from three independent experiments using GraphPad Prism version 4.01 (GraphPad Software, La Jolla, Calif.). […]\n(§2) 5×10^3 cells per well in 100 μL of media are plated and grown in a 96-well plate for 48 to 72 hours and treated with either DMSO vehicle control or 0.62 to 40 μmol/L of leelamine for 24, 48 or 72 hours. IC50 values for each compound in μmol/L for respective cell lines are measured from three independent experiments using GraphPad Prism version 4.01 (GraphPad Software, La Jolla, Calif.)."}, "[5]": {"test_system": "UACC 903 and 1205 Lu cells", "experiment": "BrdU incorporation proliferation assay", "type": "cell-based, human", "details": "0.62 to 10 μmol/L, 24 hours", "experimental": "(§3) The mechanistic basis of leelamine's activity to inhibit melanoma cell growth is determined by examining the effect of leelamine on 1) cell viability using the MTS assay; 2) proliferation using a BrdU incorporation assay; 3) apoptosis using an assay for caspase-3/7 activity; and 4) cell cycle analysis. The MTS assay as described in Sharma, A. et al., Clin Cancer Res, 2009, 15:1674-85; and Madhunapantula, S. V. et al., Mol Cancer Ther, 2008, 7:1297-308 is used to assay cell viability. Rates of proliferation and apoptosis are measured by seeding 5×10^3 cells in 96-well plates, followed by treatment with 0.62 to 10 μmol/L of leelamine for 24 hours. Proliferating and apoptotic cells are quantified using a colorimetric cell proliferation ELISA BrdU kit (Roche diagnostics, Indianapolis, Ind.) or Apo-ONE Homogenous caspase-3/7 assay kit (Promega, Madison, Wis.), respectively, as described in Sharma, A. et al., Clin Cancer Res, 2009, 15:1674-85; and Madhunapantula, S. V. et al., Mol Cancer Ther, 2008, 7:1297-308."}, "[6]": {"test_system": "GFP expressing UACC 903 melanoma cells in skin reconstructs", "experiment": "Topical treatment of melanoma tumors in skin reconstructs", "type": "cell-based, human", "details": "topical 2.5, 5 and 10 uM for 8 days", "experimental": "In this example, the effect of leelamine on melanoma tumors developing in skin reconstructs is tested by topical application. Skin reconstructs are generated by mixing GFP expressing UACC 903 melanoma cells with human normal fibroblasts (FF2441) and keratinocytes (HFK) followed by growing in a 37° C. incubator for 7 days. Beginning from day 8, completely developed skins containing melanoma tumors are treated with increasing concentrations of Leelamine (2.5, 5 and 10 uM in 200 uL PBS) or PBS vehicle alone for an additional 8 more days. The sizes of developing tumors, in terms of area occupied by GFP are measured. […] Also shown in FIG. 22 are images of control and treated cells."}, "[7]": {"test_system": "normal cells (melanocytes FOM103, fibroblasts FF2441, keratinocytes HFK)", "experiment": "MTS assay, leelamine on normal cells", "type": "cell-based", "details": "Homo sapiens, 72 hour exposure, read-out: concentration to kill 50% of normal cells", "experimental": "as §1, §2"}, "[8]": {"test_system": "UACC 903 and 1205 Lu cells", "experiment": "Caspase-3/7 apoptosis assay", "type": "cell-based, human", "details": "0.62 to 10 μmol/L, 24 hours", "experimental": "as §3"}, "[9]": {"details": "i.p. 10 mg/kg daily for 4 weeks"}},
  "data": [
    {"smiles": "CC(C)c1ccc2c(c1)CCC1[C@](C)(CN)CCC[C@]21C", "note": "(stereo partly drawn) [Leelamine, [(1R,4aS)-1,4a-dimethyl-7-(propan-2-yl)-1,2,3,4,4a,9,10,10a-octahydrophenanthren-1-yl]methanamine]", "values": [
      {"measurement": "IC50", "setting": "[1]", "value": "1 to 10", "unit": "µM"},
      {"measurement": "cell cycle distribution", "setting": "[2]", "value": "increased percentage of sub-G0-G1 and G0/G1 cell populations, with a corresponding decrease in S-phase population"},
      {"measurement": "blood ALP, ALT, AST, CK, CREA, GLU", "setting": "[3]; [9]", "value": "No significant differences"},
      {"measurement": "histology of liver, spleen, kidney, intestine, lung, heart", "setting": "[3]; [9]", "value": "did not significantly alter cell morphology or overall structure"},
      {"measurement": "body weights", "setting": "[3]; i.p. 5 or 10 mg/kg every day for 4 weeks", "value": "no significant differences"},
      {"measurement": "IC50", "setting": "[4]", "value": "1 to 3", "unit": "µM"},
      {"measurement": "proliferation (BrdU incorporation)", "setting": "[5]", "value": "decrease proliferation"},
      {"measurement": "melanoma tumor growth in skin reconstructs (GFP area)", "setting": "[6]", "value": "inhibits melanoma tumor growth"},
      {"measurement": "IC50", "setting": "[7]", "value": "5 to 8", "unit": "µM"},
      {"measurement": "apoptosis (caspase-3/7 activity)", "setting": "[8]", "value": "increase apoptosis"}
    ]}
  ]
}
